Experimental data as given in US20240239752A1, “BICYCLIC HETEROAROMATIC INHIBITORS OF KLK5” (BioCryst Pharmaceuticals, Inc., priority 2021, published 2024).

What follows are compounds tested against T1, recombinant human KLK5 (Homo sapiens, UniProt Q9Y337) (assay: Kallikrein (KLK) 5 enzymatic assay (Boc-VPR-AMC fluorogenic substrate)). Settings: recombinant human KLK5 0.1 μg/well, Boc-VPR-AMC 100 μM, pH 7.5, room temperature, 1% DMSO; tested a minimum of three times.
T1 construct: purchased Novoprotein or R&D Systems C415 or 1108-SE
T1 sequence (Q9Y337 23-293): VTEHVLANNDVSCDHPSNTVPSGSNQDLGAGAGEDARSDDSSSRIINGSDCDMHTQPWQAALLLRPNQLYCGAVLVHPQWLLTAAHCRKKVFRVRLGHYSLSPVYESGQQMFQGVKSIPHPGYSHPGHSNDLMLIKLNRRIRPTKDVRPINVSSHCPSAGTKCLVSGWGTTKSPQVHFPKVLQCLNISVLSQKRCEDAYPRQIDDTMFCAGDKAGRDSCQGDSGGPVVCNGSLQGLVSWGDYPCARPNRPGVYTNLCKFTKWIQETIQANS
Format: biochemical
How it was run: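 Recombinant human KLK5 (0.1 μg/well) was preincubated with compound at room temperature in 0.1 M NaH2PO4, pH 7.5, 1% DMSO, then started with 100 μM Boc-VPR-AMC. The rate was followed at 380/460 nm, and IC50 came from percent inhibition relative to enzyme alone, with at least three runs.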

Row | SMILES | IC50
1 | Nc1nccc2ccc(-c3ccc4c(c3)c(COc3ccccc3CC(=O)O)nn4C3CCCCO3)cc12 (stereo not shown) [Compound 93b, 2-(2-((5-(1-aminoisoquinolin-7-yl)-1-(tetrahydro-2H-pyran-2-yl)-1H-indazol-3-yl)methoxy)phenyl)acetic acid] | < 1 µM
2 | Cc1cccc(OCc2nn(CC3CCOC3)c3ccc(-c4cccc5c(N)nccc45)cc23)c1CC(=O)O (stereo not shown) [Compound 94e, 2-(2-((5-(1-aminoisoquinolin-5-yl)-1-((tetrahydrofuran-3-yl)methyl)-1H-indazol-3-yl)methoxy)-6-methylphenyl)acetic acid] | < 1 µM
3 | Cc1cccc(OCc2nn(CC3CCOC3)c3ccc(-c4ccc5ccnc(N)c5c4)cc23)c1CC(=O)O (stereo not shown) [Compound 95b, 2-(2-((5-(1-aminoisoquinolin-7-yl)-1-((tetrahydrofuran-3-yl)methyl)-1H-indazol-3-yl)methoxy)-6-methylphenyl)acetic acid] | < 1 µM
4 | N=C(N)c1cccc(-c2ccc3c(c2)c(COc2ccccc2CC(=O)O)nn3C2CCOC2)c1 (stereo not shown) [Compound 96g, 2-(2-((5-(3-carbamimidoylphenyl)-1-(tetrahydrofuran-3-yl)-1H-indazol-3-yl)methoxy)phenyl)acetic acid] | < 1 µM
5 | Nc1nccc2c(-c3ccc4[nH]nc(COc5ccccc5CC(=O)O)c4c3)cccc12 [Compound 97a, 2-(2-((5-(1-aminoisoquinolin-5-yl)-1H-indazol-3-yl)methoxy)phenyl)acetic acid] | < 1 µM
6 | Nc1nccc2ccc(-c3ccc4[nH]nc(COc5ccccc5CC(=O)O)c4c3)cc12 [Compound 98a, 2-(2-((5-(1-aminoisoquinolin-7-yl)-1H-indazol-3-yl)methoxy)phenyl)acetic acid] | < 1 µM
7 | CC(C)n1nc(COc2ccccc2CC(=O)O)c2cc(-c3ccc4c(N)nccc4c3)ccc21 [Compound 99c, 2-(2-((5-(1-aminoisoquinolin-6-yl)-1-isopropyl-1H-indazol-3-yl)methoxy)phenyl)acetic acid] | 1 to 10 µM
8 | CC(C)n1nc(COc2ccccc2CC(=O)O)c2cc(-c3ccc4ccnc(N)c4c3)ccc21 [Compound 100b, 2-(2-((5-(1-aminoisoquinolin-7-yl)-1-isopropyl-1H-indazol-3-yl)methoxy)phenyl)acetic acid] | < 1 µM
9 | COc1ccc(CC(=O)O)c(OCc2nn(C)c3ccc(-c4cccc(C(=N)N)c4)cc23)c1 [Compound 101b, 2-(2-((5-(3-carbamimidoylphenyl)-1-methyl-1H-indazol-3-yl)methoxy)-4-methoxyphenyl)acetic acid] | < 1 µM
10 | CC(C)n1nc(COc2ccccc2CC(=O)O)c2cc(-c3ccc4onc(N)c4c3)ccc21 [Compound 102c, 2-(2-((5-(3-aminobenzo[d]isoxazol-5-yl)-1-isopropyl-1H-indazol-3-yl)methoxy)phenyl)acetic acid] | 1 to 10 µM
11 | Cc1ccc(CC(=O)O)c(OCc2nn(C(C)C)c3ccc(-c4cccc(C(=N)N)c4)cc23)c1 [Compound 103c, 2-(2-((5-(3-carbamimidoylphenyl)-1-isopropyl-1H-indazol-3-yl)methoxy)-4-methylphenyl)acetic acid] | < 1 µM
12 | Cc1ccc(CC(=O)O)c(OCc2nn(C)c3ccc(-c4cccc(C(=N)N)c4)cc23)c1 [Compound 104d, 2-(2-((5-(3-carbamimidoylphenyl)-1-methyl-1H-indazol-3-yl)methoxy)-4-methylphenyl)acetic acid] | < 1 µM
13 | CC(C)n1nc(COc2ccccc2CC(=O)O)c2cc(-c3ccc4nc(N)oc4c3)ccc21 [Compound 105c, 2-(2-((5-(2-aminobenzo[d]oxazol-6-yl)-1-isopropyl-1H-indazol-3-yl)methoxy)phenyl)acetic acid] | > 10 µM
14 | Nc1nccc2c(-c3cc(-c4ccoc4)c4c(c3)c(COc3ccccc3CC(=O)O)nn4C3CCCCO3)cccc12 (stereo not shown) [Compound 106g, 2-(2-((5-(1-aminoisoquinolin-5-yl)-7-(furan-3-yl)-1-(tetrahydro-2H-pyran-2-yl)-1H-indazol-3-yl)methoxy)phenyl)acetic acid] | < 1 µM
15 | Nc1nccc2c(-c3cc(NCC4CC4)c4c(c3)c(COc3ccccc3CC(=O)O)nn4C3CCCCO3)cccc12 (stereo not shown) [Compound 107d, 2-(2-((5-(1-aminoisoquinolin-5-yl)-7-((cyclopropylmethyl)amino)-1-(tetrahydro-2H-pyran-2-yl)-1H-indazol-3-yl)methoxy)phenyl)acetic acid] | < 1 µM
16 | N#Cc1cc(-c2cccc3c(N)nccc23)cc2c(COc3ccccc3CC(=O)O)nn(C3CCCCO3)c12 (stereo not shown) [Compound 108c, 2-(2-((5-(1-aminoisoquinolin-5-yl)-7-cyano-1-(tetrahydro-2H-pyran-2-yl)-1H-indazol-3-yl)methoxy)phenyl)acetic acid] | < 1 µM

Row | SMILES | IC50
17 | Nc1nccc2ccc(-c3ccc4nn(C5CCOC5)c(COc5ccccc5CC(=O)O)c4c3)cc12 (stereo not shown) [Compound 109b, 2-(2-((5-(1-aminoisoquinolin-7-yl)-2-(tetrahydrofuran-3-yl)-2H-indazol-3-yl)methoxy)phenyl)acetic acid] | 1 to 10 µM
18 | CCC(CC)n1nc(COc2ccccc2CC(=O)O)c2cc(-c3ccc4ccnc(N)c4c3)ccc21 [Compound 110e, 2-(2-((5-(1-aminoisoquinolin-7-yl)-1-(pentan-3-yl)-1H-indazol-3-yl)methoxy)phenyl)acetic acid] | < 1 µM
19 | COCCn1nc(COc2ccccc2CC(=O)O)c2cc(-c3ccc4ccnc(N)c4c3)ccc21 [Compound 111e, 2-(2-((5-(1-aminoisoquinolin-7-yl)-1-(2-methoxyethyl)-1H-indazol-3-yl)methoxy)phenyl)acetic acid] | < 1 µM
20 | Nc1nccc2ccc(-c3ccc4c(c3)c(COc3ccccc3CC(=O)O)nn4C3CC4(CCC4)C3)cc12 [Compound 112e, 2-(2-((5-(1-aminoisoquinolin-7-yl)-1-(spiro[3.3]heptan-2-yl)-1H-indazol-3-yl)methoxy)phenyl)acetic acid] | < 1 µM
21 | Nc1nccc2ccc(-c3ccc4nn([C@H]5CCN(CCO)C5)c(COc5ccccc5CC(=O)O)c4c3)cc12 [Compound 113h, (S)-2-(2-((5-(1-aminoisoquinolin-7-yl)-2-(1-(2-hydroxyethyl)pyrrolidin-3-yl)-2H-indazol-3-yl)methoxy)phenyl)acetic acid] | 1 to 10 µM
22 | Nc1nccc2c(-c3ccc4nn([C@H]5CCN(CC(=O)O)C5)c(COc5ccccc5CC(=O)O)c4c3)cccc12 [Compound 114d, (S)-2-(2-((5-(1-aminoisoquinolin-5-yl)-2-(1-(carboxymethyl)pyrrolidin-3-yl)-2H-indazol-3-yl)methoxy)phenyl)acetic acid] | < 1 µM
23 | Nc1nccc2c(-c3ccc4nn([C@H]5CCN(CCO)C5)c(COc5ccccc5CC(=O)O)c4c3)cccc12 [Compound 115b, (S)-2-(2-((5-(1-aminoisoquinolin-5-yl)-2-(1-(2-hydroxyethyl)pyrrolidin-3-yl)-2H-indazol-3-yl)methoxy)phenyl)acetic acid] | 1 to 10 µM
24 | Nc1nccc2ccc(-c3ccc4nn([C@H]5CCN(CC(=O)O)C5)c(COc5ccccc5CC(=O)O)c4c3)cc12 [Compound 116b, (S)-2-(2-((5-(1-aminoisoquinolin-7-yl)-2-(1-(carboxymethyl)pyrrolidin-3-yl)-2H-indazol-3-yl)methoxy)phenyl)acetic acid] | 1 to 10 µM
25 | COCCN1CC[C@H](n2nc3ccc(-c4cccc5c(N)nccc45)cc3c2COc2ccccc2CC(=O)O)C1 [Compound 117c, (S)-2-(2-((5-(1-aminoisoquinolin-5-yl)-2-(1-(2-methoxyethyl)pyrrolidin-3-yl)-2H-indazol-3-yl)methoxy)phenyl)acetic acid] | 1 to 10 µM
26 | COCCN1CC[C@H](n2nc3ccc(-c4ccc5ccnc(N)c5c4)cc3c2COc2ccccc2CC(=O)O)C1 [Compound 118b, (S)-2-(2-((5-(1-aminoisoquinolin-7-yl)-2-(1-(2-methoxyethyl)pyrrolidin-3-yl)-2H-indazol-3-yl)methoxy)phenyl)acetic acid] | 1 to 10 µM
27 | Nc1nccc2ccc(-c3ccc4nn(C5CN(CCO)C5)c(COc5ccccc5CC(=O)O)c4c3)cc12 [Compound 119h, 2-(2-((5-(1-aminoisoquinolin-7-yl)-2-(1-(2-hydroxyethyl)azetidin-3-yl)-2H-indazol-3-yl)methoxy)phenyl)acetic acid] | 1 to 10 µM
28 | COCCN1CC(n2nc3ccc(-c4cccc5c(N)nccc45)cc3c2COc2ccccc2CC(=O)O)C1 [Compound 120c, 2-(2-((5-(1-aminoisoquinolin-5-yl)-2-(1-(2-methoxyethyl)azetidin-3-yl)-2H-indazol-3-yl)methoxy)phenyl)acetic acid] | < 1 µM
29 | CC(C)CCN1CC(n2nc3ccc(-c4cccc5c(N)nccc45)cc3c2COc2ccccc2CC(=O)O)C1 [Compound 121c, 2-(2-((5-(1-aminoisoquinolin-5-yl)-2-(1-isopentylazetidin-3-yl)-2H-indazol-3-yl)methoxy)phenyl)acetic acid] | < 1 µM
30 | COCCN1CC(n2nc3ccc(-c4ccc5ccnc(N)c5c4)cc3c2COc2ccccc2CC(=O)O)C1 [Compound 122b, 2-(2-((5-(1-aminoisoquinolin-7-yl)-2-(1-(2-methoxyethyl)azetidin-3-yl)-2H-indazol-3-yl)methoxy)phenyl)acetic acid] | 1 to 10 µM
31 | Nc1nccc2c(-c3ccc4nn(C5CN(CCO)C5)c(COc5ccccc5CC(=O)O)c4c3)cccc12 [Compound 123b, 2-(2-((5-(1-aminoisoquinolin-5-yl)-2-(1-(2-hydroxyethyl)azetidin-3-yl)-2H-indazol-3-yl)methoxy)phenyl)acetic acid] | 1 to 10 µM
